Laboratory results as given in US8697731B2, “Derivatives of 2-pyridin-2-yl-pyrazol-3(2H)-one, preparation and therapeutic use thereof” (Sanofi, priority 2008, dated 2014).
Structures can show the parent of a compound that is named as a salt.

| melting point | SMILES |
| --- | --- |
| 198 °C | CN(Cc1ccccn1)S(=O)(=O)c1ccc(-n2[nH]c3c(c2=O)CSC3)nc1 (as salt: HCl) [Compound 27, N-methyl-6-(3-oxo-4,6-dihydro-1H-thieno[3,4-c]pyrazol-2(3H)-yl)-N-(pyridin-2-ylmethyl)pyridine-3-sulfonamide] |
| 182 °C | CN(C)c1ccnc(-n2[nH]c3c(c2=O)CSC3)c1 (as salt: HCl) [Compound 60, 2-[4-(dimethylamino)pyridin-2-yl]-1,2,4,6-tetrahydro-3H-thieno[3,4-c]pyrazol-3-one hydrochloride] |
| > 260 °C | CCN(C(C)(C)C)S(=O)(=O)c1ccc(-n2nc3c(c2O)CSC3)nc1 (as salt: Na) [Compound 32, sodium 2-{5-[tert-butyl(ethyl)sulfamoyl]pyridin-2-yl}-2,6-dihydro-4H-thieno[3,4-c]pyrazol-3-olate] |
| > 250 °C | CCN(c1ccccc1)S(=O)(=O)c1ccc(-n2nc3c(c2O)N(Cc2ccccc2)C(=O)CC3)nc1 (as salt: Na) [Compound 35, sodium 4-benzyl-2-{5-[ethyl(phenyl)sulfamoyl]pyridin-2-yl}-5-oxo-4,5,6,7-tetrahydro-2H-pyrazolo[4,3-b]pyridin-3-olate] |
| 130 °C | CN(C(C)(C)C)S(=O)(=O)c1ccc(-n2nc3c(c2O)CSC3)nc1 (as salt: Na) [Compound 36, sodium 2-{5-[tert-butyl(methyl)sulfamoyl]pyridin-2-yl}-2,6-dihydro-4H-thieno[3,4-c]pyrazol-3-olate] |
| > 260 °C | CCc1ccnc(-n2[nH]c3c(c2=O)CSC3)c1 (as salt: Na) [Compound 61, sodium 2-(4-ethylpyridin-2-yl)-2,6-dihydro-4H-thieno[3,4-c]pyrazol-3-olate] |
| > 260 °C | Oc1c2c(nn1-c1cc(OCc3cccnc3)ccn1)CSC2 (as salt: Na) [Compound 64, sodium 2-[4-(pyridin-3-ylmethoxy)pyridin-2-yl]-2,6-dihydro-4H-thieno[3,4-c]pyrazol-3-olate] |
| 76 °C | COC1CCc2c1[nH]n(-c1ccccn1)c2=O (stereo not shown) [Compound 11, 6-methoxy-2-(pyridin-2-yl)-1,4,5,6-tetrahydrocyclopenta[c]pyrazol-3(2H)-one] |
| 175 °C | O=c1c2c([nH]n1-c1ccccn1)CCSC2 [Compound 12, 2-(pyridin-2-yl)-1,4,6,7-tetrahydrothiopyrano[4,3-c]pyrazol-3(2H)-one] |
| > 220 °C | Cc1ccc(-n2nc3c(c2[O-])CSC3)nc1.[Na+] [Compound 31, sodium 2-(5-methylpyridin-2-yl)-2,6-dihydro-4H-thieno[3,4-c]pyrazol-3-olate] |
| 190 °C | O=c1c2c([nH]n1-c1ccc(S(=O)(=O)N(CC(O)CO)C3CCCC3)cn1)CSC2 (stereo not shown) [Compound 53, N-cyclopentyl-N-(2,3-dihydroxypropyl)-6-(3-oxo-4,6-dihydro-1H-thieno[3,4-c]pyrazol-2(3H)-yl)pyridine-3-sulfonamide] |
| 230 °C | CC(C)(C)COC(=O)c1ccc(-n2[nH]c3c(c2=O)CN(S(C)(=O)=O)CC3)nc1 [Compound 54, 2,2-dimethylpropyl 6-[5-(methylsulfonyl)-3-oxo-1,3,4,5,6,7-hexahydro-2H-pyrazolo[4,3-c]pyridin-2-yl]pyridine-3-carboxylate] |
| 92 °C | CC(C)c1ccnc(-n2[nH]c3c(c2=O)CSC3)c1 [Compound 65, 2-[4-(propan-2-yl)pyridin-2-yl]-1,2,4,6-tetrahydro-3H-thieno[3,4-c]pyrazol-3-one] |
